In US7989179B2, “LXR ligand testing method” (Daiichi Sankyo Company, Limited, priority 2005, dated 2011):

Columns and labels:
[1] = molecular target: T1, heterodimer comprising LXRα and RXRα (Homo sapiens, UniProt Q13133, A196R); assay: FRET assay of coactivator peptide binding to His-LXRα/FLAG-RXRα; format: biochemical
T1 construct: amino acid nos; made in house; host or cells: Escherichia coli BL21(DE3)
T1 sequence (Q13133 164-447 A196R): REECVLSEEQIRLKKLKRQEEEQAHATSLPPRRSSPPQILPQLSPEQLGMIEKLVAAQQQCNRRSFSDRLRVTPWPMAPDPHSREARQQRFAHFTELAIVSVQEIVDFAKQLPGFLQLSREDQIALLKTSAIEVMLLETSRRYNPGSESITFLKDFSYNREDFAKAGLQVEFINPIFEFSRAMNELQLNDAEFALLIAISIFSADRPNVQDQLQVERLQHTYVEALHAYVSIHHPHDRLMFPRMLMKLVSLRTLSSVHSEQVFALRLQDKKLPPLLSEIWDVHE
T1 sequence (P19793 201-462 partner limits assumed): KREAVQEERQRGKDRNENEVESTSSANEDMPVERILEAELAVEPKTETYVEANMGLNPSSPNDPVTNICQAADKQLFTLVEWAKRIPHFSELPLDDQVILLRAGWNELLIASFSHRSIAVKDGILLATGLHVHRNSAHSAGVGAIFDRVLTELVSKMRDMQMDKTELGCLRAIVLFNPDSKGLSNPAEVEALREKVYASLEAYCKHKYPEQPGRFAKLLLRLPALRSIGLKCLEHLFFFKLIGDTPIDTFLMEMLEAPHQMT
Experimental: 8 μl of LXRα reaction solution (0.05 μl of 4 μM His-LXRα and FLAG-RXRα mixed solution, 1.00 μl of 10×PBS (Sigma Chemical), 2.50 μl of 2 M KF (Wako Pure Chemical Industries), 0.10 μl of 10% NP40 (Sigma Chemical), 0.15 μl of anti-His tag antibody (CIS Bio International) and 4.20 μl of H2O) containing the His-LXRα and FLAG-RXRα prepared according to Example 1 were placed in a 384-well assay plate (Greiner Bio-One).
Next, 2 μl of a solution of Compound A (N-(2,2,2-trifluoroethyl)-N-{4-[2,2,2-trifluoro-1-hydroxy-1-(trifluoromethyl)ethyl]phenyl}benzene sulfonamide (Compound 12 described on page 55 of International Publication WO2000/054759) or Compound B (3-chloro-4-(3-(2-propyl-3-trifluoromethyl-6-benz-[4,5]-isooxazoloxy)propylthio)phenylacetic acid (a compound described in Example 20 on page 70 of International Publication WO1997/028137), dissolved to a concentration of 10 μM in dimethyl sulfoxide (hereinafter referred to as “DMSO”), were added to each well of a 384-well assay plate followed by incubating for 1 hour at room temperature.
Next, 10 μl of peptide reaction solution (1.00 μl of 5 μM peptide, 1.00 μl of 10×PBS, 2.50 μl of 2 M KF, 0.10 μl of 10% NP40, 0.20 μl of streptavidin (CIS Bio International) and 5.20 μl of H2O) were added to each well of the 384-well assay plate and incubated for 17 hours at 4° C. The peptide added here was comprising of any of the amino acid sequences of (a) to (g) below, and the amino acid of the N-terminal was biotinylated.
Following completion of incubation, the assay plate was subjected to excitation light at 337 nm using a fluorescent plate reader (Envision, Perkin-Elmer), and fluorescent absorbance at 665 nm and 620 nm was measured to determine the binding capacity between the protein and the peptide.
The value obtained by multiplying 1000 by the value resulting from dividing the measured value at 665 nm when applying excitation light at 337 nm by the measured value at 620 nm was determined. This value was then divided by the value determined by the same method when only DMSO was added without adding LXR ligand (Compound A or Compound B), and this value was then multiplied by 100 and indicated as the percentage relative to the control (% of control) as shown in Table 6.
The value for % of control determined here is the value, represented by a percentage, that indicates the ratio of the increase in the amount of coactivator bound to LXRα that results from adding LXR ligand, and the larger this value, the larger the amount of coactivator that binds to LXRα.
(1) According to the same method as Example 2) (using the following peptides (h) to (m), instead of the peptides (a) to (g) in Example 2), the amount of coactivator bound to the heterodimer LXRα and RXRα were determined.

[2] = Cynomolgus monkey consecutive daily administration study; format: in vivo, cynomolgus monkeys; conditions: for Relative value of LDL Cholesterol in Plasma (% of control group) / Relative value of TG in Plasma (% of control group): male cynomolgus monkeys, force fed, PG/Tween
Experimental: Five to seven year old, male cynomolgus monkeys in groups of 5 animals each were force fed only an administration base (Propylene glycol (Wako Pure Chemical Industries)/Tween 80 (Kao) (volume ratio: 4/1, hereinafter referred to as “PG/Tween”)) (hereinafter referred to as “the control group”), or Compound A or Compound B dissolved in PG/Tween in an amount of 3 mg/kg or 10 mg/kg once a day for 7 days between the hours of 8:00 and 10:00 AM. After fasting for 16 hours starting at 5:00 PM on the 7th day of administration, 1 mL of blood was collected from the cephalic vein with a heparinized syringe followed by centrifuging for 15 minutes at 4° C. and 5000 rpm to obtain plasma.
The levels of LDL cholesterol and triglycerides in the plasma were measured with an auto analyzer (Hitachi Model 7170) followed by calculation of the % of control group (Tables 8 and 9).

THP-1 cells = assay: Cholesterol efflux assay; format: cell-based; conditions: compound final concentration 0.1 μM, 24 hours
Experimental: 3×10^5 THP-1 cells (ATCC No.: TIB-202) were disseminated in a 96-well white plate (Costar) followed by the addition of 200 nM Phorbol 12-Myristate 13-Acetate (Sigma) and culturing for 24 hours at 37° C. in a CO2 incubator. […] Following completion of culturing, 100 μl of PBS containing 0.2% bovine serum albumin (hereinafter referred to as “BSA”, (Sigma Chemical)) were added to each well to wash the cells. Next, 100 μl of RPMI 1640 containing Apolipoprotein A1 (hereinafter referred to as “ApoA1”, (Biogenesis)) at a final concentration of 10 μg/ml, or RPMI 1640 not containing ApoA1, were added to each well. […] Following completion of culturing, the plate was centrifuged for 5 minutes at 1,000 rpm and 4° C. 75 μl of medium in the form of the centrifuged supernatant were transferred to a 96-well Luma plate (Packard) and allowed to dry. […] 20 (Packard) were added to each well of the plate containing the washed cells and allowed to stand overnight, followed by measuring the radioactivity of the medium and cells with a scintillation counter (Top Count, Packard). Percent (%) efflux was calculated from the measured values using the calculation formula shown below. % efflux=(Specific radioactivity of medium(CPM)/75×100)/(Specific radioactivity of medium(CPM)+specific radioactivity of cells(CPM))×100 […]

[3] = molecular target: T2, heterodimer comprising LXRβ and RXRα (Homo sapiens, UniProt P55055, DUP175-175); assay: FRET assay of coactivator peptide binding to His-LXRβ/FLAG-RXRα; format: biochemical
T2 construct: made in house; host or cells: Escherichia coli BL21(DE3)
T2 sequence (P55055 with tags, fused parts or gaps DUP175-175): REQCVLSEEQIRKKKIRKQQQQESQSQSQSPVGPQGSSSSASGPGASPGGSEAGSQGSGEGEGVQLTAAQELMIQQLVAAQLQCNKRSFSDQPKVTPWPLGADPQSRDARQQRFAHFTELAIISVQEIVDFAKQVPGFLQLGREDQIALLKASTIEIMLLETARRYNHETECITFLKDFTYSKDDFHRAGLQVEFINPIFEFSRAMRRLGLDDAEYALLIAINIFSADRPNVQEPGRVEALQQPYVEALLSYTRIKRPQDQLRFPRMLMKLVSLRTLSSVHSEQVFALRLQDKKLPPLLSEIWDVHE
T2 sequence (P19793 201-462 partner limits assumed): T1 sequence (P19793 201-462 partner limits assumed)
Experimental: 8 μl of LXRβ reaction solution (0.025 μl of 8 μM His-LXRβ and FLAG-RXRα mixed solution, 1.00 μl of 10×PBS, 2.50 μl of 2 M KF, 0.10 μl of 10% NP40, 0.15 μl of anti-His tag antibody and 4.23 μl of H2O) containing the His-LXRβ and FLAG-RXRα prepared according to Example 1 were placed in a 384-well assay plate (Greiner Bio-One) and measured according to the same method as Example 2 to determine the % of control (Table 6). There was no significant difference observed in the resulting values between Compound A and Compound B.
(2) […]: According to the same method in Example 3) (using the above peptides (h) to (m), instead of peptides (a) to (g) in Example 3), the amount of the coactivator bound to the heterodimer comprising LXRβ and RXRα were determined. There was no significant difference observed in the resulting values between Compound A and Compound B (Table 7).

[4] = peptide ASC2 NR-1, 2 μl of 10 μM compound solution in DMSO
[5] = peptide ASC2 NR-2, 2 μl of 10 μM compound solution in DMSO
[6] = peptide PGC-1α, 2 μl of 10 μM compound solution in DMSO
[7] = peptide SRC1-2, 2 μl of 10 μM compound solution in DMSO
[8] = peptide SRC1-3, 2 μl of 10 μM compound solution in DMSO
[9] = peptide SRC1-4, 2 μl of 10 μM compound solution in DMSO
[10] = peptide TIF2, 2 μl of 10 μM compound solution in DMSO

O=S(=O)(c1ccccc1)N(CC(F)(F)F)c1ccc(C(O)(C(F)(F)F)C(F)(F)F)cc1 [Compound A, N-(2,2,2-trifluoroethyl)-N-{4-[2,2,2-trifluoro-1-hydroxy-1-(trifluoromethyl)ethyl]phenyl}benzenesulfonamide]
effect on amount of coactivator bound to LXRα (result in words) ([1]; Example 2, peptides (a) to (g)): increases the amount of coactivator bound to LXRα | LXRα (% of control) ([1]; peptide ACTR NRB3, same method as Example 2): 167 % of control | LXRα (% of control) [1, 4]: 155.8 % of control | LXRα (% of control) [1, 5]: 254.0 % of control | LXRα (% of control) ([1]; peptide DAX1, same method as Example 2): 158 % of control | LXRα (% of control) ([1]; peptide PERC NRB2, same method as Example 2): 127 % of control | LXRα (% of control) [1, 6]: 361.7 % of control | LXRα (% of control) ([1]; peptide PNRC, same method as Example 2): 140 % of control | LXRα (% of control) [1, 7]: 267.0 % of control | LXRα (% of control) [1, 8]: 181.3 % of control | LXRα (% of control) [1, 9]: 207.3 % of control | LXRα (% of control) [1, 10]: 266.7 % of control | LXRα (% of control) ([1]; peptide TIF2 NRB2, same method as Example 2): 268 % of control | LXRα (% of control) ([1]; peptide TRAP220, same method as Example 2): 131 % of control | effect on plasma LDL cholesterol and triglyceride concentration (result in words) ([2]; cynomolgus monkeys, 7 days administration): increase LDL cholesterol concentration and triglyceride concentration in the plasma | Relative value of LDL Cholesterol in Plasma (% of control group) ([2]; 3 mg/kg once a day for 7 days): 137% | Relative value of TG in Plasma (% of control group) ([2]; 3 mg/kg once a day for 7 days): 429% | Relative value of LDL Cholesterol in Plasma (% of control group) ([2]; 10 mg/kg once a day for 7 days): 207% | Relative value of TG in Plasma (% of control group) ([2]; 10 mg/kg once a day for 7 days): 661% | relative cholesterol efflux activity (% efflux, Compound A at 1 μM = 100) (THP-1 cells): 86% | LXRβ (% of control) ([3]; peptide ACTR NRB3, same method as Example 3): 129 % of control | LXRβ (% of control) [3, 4]: 114.5 % of control | LXRβ (% of control) [3, 5]: 120.4 % of control | LXRβ (% of control) ([3]; peptide DAX1, same method as Example 3): 116 % of control | LXRβ (% of control) ([3]; peptide PERC NRB2, same method as Example 3): 104 % of control | LXRβ (% of control) [3, 6]: 191.0 % of control | LXRβ (% of control) ([3]; peptide PNRC, same method as Example 3): 109 % of control | LXRβ (% of control) [3, 7]: 120.4 % of control | LXRβ (% of control) [3, 8]: 110.6 % of control | LXRβ (% of control) [3, 9]: 154.6 % of control | LXRβ (% of control) [3, 10]: 107.9 % of control | LXRβ (% of control) ([3]; peptide TIF2 NRB2, same method as Example 3): 125 % of control | LXRβ (% of control) ([3]; peptide TRAP220, same method as Example 3): 111 % of control
